“Also recorded” adds a separate entry of the source.
Tests used:
H. pylori 26695 = assay: Diffusion disk assay, inhibition halos; assay type: cell-based, Helicobacter pylori; details: paper disks, 15 μl; 200 mM CORM-2; 150 mM Formula II and Formula III; 24-36 hours
hemoglobin (Hb) = target: T1, hemoglobin (Hb) (Bos taurus, UniProt P01966+P02070); assay: Transfer of CO from CORMs to Hb (carbonylation, shift of Soret band); assay type: biochemical, bovine
T1 construct: purchased Sigma

S. aureus NCTC8325 = assay type: cell-based, Staphylococcus aureus; details: for effect on viability / growth of S. aureus: CO gas flux 15 min, CORM-2 250 μM, CORM-3 500 or 400 nM (so in the source), Formula IV 600 μM, Formula V 50 μM, LB medium; for bactericidal effect on S. aureus in the presence of Hb: with CO scavenger Hb, bovine, 20 μM
Description: (§1) Bacterial strains and growth conditions: E. coli K-12 ATCC 23716 and S. aureus NCTC8325 were grown in minimal salts (MS) medium (1.3% [wt/vol] Na2HPO4, 0.3% [wt/vol] KH2PO4, 0.05% [wt/vol] NaCl, and 0.1% [wt/vol] NH4Cl supplemented with 20 mM glucose, 2 mM MgSO4, 100 μM CaCl2, and 0.25% [wt/vol] Casamino Acids) and in Luria-Bertani (LB) medium (1% [wt/vol] tryptone, 0.5% [wt/vol] yeast extract, and 1% [wt/vol] NaCl), respectively, under different oxygen supply conditions. Aerobic experiments were undertaken with flasks filled to one-fifth of their volume, microaerobic tests were conducted with closed flasks filled to one-half of their volume, and anaerobic conditions were produced in rubber-sealed flasks that, once filled with medium and closed, were extensively fluxed with nitrogen gas.
(§2) CO gas and CORM treatment: Overnight cultures of E. coli or S. aureus grown in LB or tryptic soy broth, respectively, were used to inoculate fresh MS medium (E. coli) or LB medium (S. aureus), and the cultures on fresh medium were incubated at 37° C. under the required aeration conditions to an optical density at […] of 0.3. At this point, cells were exposed to a flux of CO gas for 15 min or to CORMs. Untreated cells were bubbled with nitrogen gas or treated with dimethyl sulfoxide, water, or methanol, depending on the solvent used to dissolve the CORM.
(§3) Viability assays: The number of viable cells was evaluated by measuring the CFU per milliliter upon plating serial dilutions of the various cultures onto agar plates. The percent survival was calculated as the number of colonies originated by treated cultures divided by the number of colonies formed upon the plating of untreated cultures. Sensitivity tests were conducted by plating 5 μl serial dilutions of cultures grown for 4 h and treated with CORMs, with or without the CO scavenger hemoglobin (Hb [bovine form used at 20 μM; Sigma]), onto agar.

[1] = CO release kinetics: CO released into medium by CORMs (gas chromatography); assay type: physicochemical; details: media utilized (MS, LB), time scale of the experiment
Description: CO release kinetics: CORMs were mixed with MS or LB medium in sealed vessels, and the vessels were incubated at room temperature under constant stirring and protected from light. Gas samples were collected after 30 min and 4 h and analyzed using a gas chromatograph (Thermo Finnigan Trace) equipped with a CTRI column (Alltech) and a thermal conductivity detector. The CO released was quantified using a calibration curve recorded prior to the reaction course.

E. coli = assay: MIC and MBC by tube dilution test; assay type: cell-based, Escherichia coli; details: minimal medium, at least 18 h at 37° C.
Description: (§4) The investigation of MICs and minimal bactericidal concentrations (MBCs) was carried out by the tube dilution test. Briefly, 2.5 ml of minimal medium was inoculated with an overnight culture of E. coli or S. aureus to give an optical density at 600 nm of 0.005 to 0.01. Different concentrations of CORM-2, between 150 μM and 2 mM, were added to the diluted suspensions in the wells of 24-well plates, and the plates were incubated for at least 18 h at 37° C. and 90 rpm. The concentration of CORM-2 in the first well in the series with no sign of visible growth was reported as the MIC. […] After incubation at 37° C. for 24 h, the lowest concentration of CORM-2 in a culture with no growth was assumed to be the MBC.

S. aureus = assay: MIC and MBC by tube dilution test; assay type: cell-based, Staphylococcus aureus; details: minimal medium, at least 18 h at 37° C.
Description: as §4

E. coli K-12 ATCC 23716 = assay type: cell-based, Escherichia coli; details: for effect on viability / growth of E. coli: CO gas flux 15 min, CORM-2 250 μM, CORM-3 400 μM, Formula IV 500 μM aerobic or 200 μM anaerobic, Formula V 50 μM, MS medium; for bactericidal effect on E. coli in the presence of Hb: with CO scavenger Hb, bovine, 20 μM
Description: as §1, §2, §3

bacteria = assay: Bactericidal effect / bacterial growth, bacterium not given; assay type: cell-based; details: for bactericidal properties or altered growth kinetics of decomposition products: same concentration as compound of Formula V (50 μM), data not shown
Description: as §2
as §3, with “agar. The experiments were performed with a minimum of three independent cultures, and the results are presented in the figures as averaged values with error bars representing one standard deviation.” for “agar.”

T1 sequence (P01966 2-142): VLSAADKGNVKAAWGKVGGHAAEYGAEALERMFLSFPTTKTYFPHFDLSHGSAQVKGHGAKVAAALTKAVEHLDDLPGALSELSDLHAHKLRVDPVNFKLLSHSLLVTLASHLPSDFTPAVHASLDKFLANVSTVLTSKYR
T1 sequence (P02070 whole entry): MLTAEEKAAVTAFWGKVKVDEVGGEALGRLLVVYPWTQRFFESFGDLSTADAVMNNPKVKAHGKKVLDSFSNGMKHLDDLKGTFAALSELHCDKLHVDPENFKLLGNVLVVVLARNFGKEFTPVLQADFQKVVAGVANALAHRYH

With `[C-]#[O+].[C-]#[O+].[C-]#[O+].[C-]#[O+].[C-]#[O+].[C-]#[O+].[Cl][Ru][Cl].[Cl][Ru][Cl]` [CORM-2, tricarbonyldichlororuthenium(II) dimer, reference compound] the “bactericidal effect on H. pylori (inhibition halos)” value (H. pylori 26695) was “bactericidal effect”, the “time for carbonylation of Hb (in words)” value (hemoglobin (Hb)) was “within the mixing time” and the “effect on viability / growth of S. aureus” value (S. aureus NCTC8325) was “significantly diminished”. The “release of CO gas upon dissolution in the medium (in words)” value (“release of CO gas upon dissolution” for short) [1] was “neither CORM-2 nor CORM-3 releases CO gas”, the MBC/MIC ratio (E. coli) was 1.5 and the MBC/MIC ratio (S. aureus) was 1.0. For the same molecule, the “effect on viability / growth of E. coli” value (E. coli K-12 ATCC 23716) was “significantly diminished”.
With `NCC(=O)O.[CH+]=O.[CH+]=O.[CH+]=O.[Cl][Ru]` [CORM-3, tricarbonylchloro(glycinato)ruthenium(II), reference compound] the “time for carbonylation of Hb (in words)” value (hemoglobin (Hb)) was “within the mixing time”, the “effect on viability / growth of S. aureus” value (S. aureus NCTC8325) was “strongly decreased the viability” and the “release of CO gas upon dissolution” value [1] was “neither CORM-2 nor CORM-3 releases CO gas”. For the same molecule, the “effect on viability / growth of E. coli” value (E. coli K-12 ATCC 23716) was “strongly decreased the viability”.
In the case of `[C-]#[O+]` [CO gas, Carbon monoxide], the “concentration of CO needed to become effective as a bactericide” value (bacteria; CO administered as gas) is reported as “ca. 1 mM”, the “effect on viability / growth of S. aureus” value (S. aureus NCTC8325) is reported as “significant growth impairment” and the “effect on viability / growth of E. coli” value (E. coli K-12 ATCC 23716) is reported as “significant growth impairment”.
For `CC[N+](CC)(CC)CC.[Br-]` [tetraethyl ammonium bromide], the “bactericidal properties or altered growth kinetics of decomposition products” value (bacteria) was “None of these compounds had bactericidal properties or altered growth kinetics”.
With `CC[N+](CC)(CC)CC.O=[C]=[Mo-]([Br])(=[C]=O)(=[C]=O)(=[C]=O)=[C]=O` [compound of Formula V, tetraethylammonium molybdenum pentacarbonyl bromide] the “effect on viability / growth of S. aureus” value (S. aureus NCTC8325) was “strongly reducing the viability”, the “bactericidal effect on S. aureus in the presence of Hb” value (S. aureus NCTC8325) was “completely eliminated the harmful action” and the “release of CO gas upon dissolution” value [1] was “rather small amounts”. The “effect on viability / growth of E. coli” value (E. coli K-12 ATCC 23716) was “strongly reducing the viability” and the “bactericidal effect on E. coli in the presence of Hb” value (E. coli K-12 ATCC 23716) was “completely eliminated the harmful action”.
In the case of `[Na+].[Na+].[O]=[Mo](=[O])([O-])[O-]` [sodium molybdate], the “bactericidal properties or altered growth kinetics of decomposition products” value (bacteria) is reported as “None of these compounds had bactericidal properties or altered growth kinetics”.
For `O=[C]=[Mn]([Br])(=[C]=O)(=[C]=O)(=[C]=O)=[C]=O` [compound of Formula IV, bromo(pentacarbonyl)manganese], the “effect on viability / growth of S. aureus” value (S. aureus NCTC8325) was “strongly reducing the viability”, the “bactericidal effect on S. aureus in the presence of Hb” value (S. aureus NCTC8325) was “completely eliminated the harmful action” and the “release of CO gas upon dissolution” value [1] was “rather small amounts”. For the same molecule, the “effect on viability / growth of E. coli” value (E. coli K-12 ATCC 23716) was “strongly reducing the viability; also recorded: more effective in reducing the viability of E. coli cells grown anaerobically” and the “bactericidal effect on E. coli in the presence of Hb” value (E. coli K-12 ATCC 23716) was “completely eliminated the harmful action”.
With `O=[C][Mo]12([C]=O)([C]=O)[O]C(=O)CN(CCN(CC(=O)O)CC(=O)[O]1)CCN(CC(=O)O)CC(=O)[O]2` [compound of Formula III] the “bactericidal effect on H. pylori (inhibition halos)” value (H. pylori 26695) was “bactericidal effect”.

Source: patent US20100196516A1, “TREATMENT OF INFECTIONS BY CARBON MONOXIDE” (priority 2007, published 2010)
